The test deals with T1, PD-1/PD-L1 (Homo sapiens, UniProt Q9NZQ7).
T1 construct: TVMV protease site linker (C); made in house; host or cells: HEK293T cells
The test can be described thus: PD-1/PD-L1 Homogenous Time-Resolved Fluorescence (HTRF) binding assay. A digest of the protocol:
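HTRF read-out using europium cryptate anti-Ig (1 nM) and APC anti-His (20 nM) on extracellular-domain fusion proteins in dPBS/0.1% BSA/0.05% Tween-20. Inhibitor first incubated 15 min with 10 nM PD-L1-His, followed by 20 nM PD-1-Ig for another 15 min.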

[1] abbreviates: PD-L1-His 10 nM pre-incubated with inhibitor, PD-1-Ig 20 nM, read-out: HTRF IC50.

Molecules are shown by their SMILES. pIC50: −log10 of the molar value. Where two headings read alike, the source gives them in different places. Starred links: 1 amine or outer side, 2 acyl side, 3 side chain; linkers in the order of their positions; H or OH if unused. Positions of bridges follow the written chain, without caps; N, C: chain ends. Non-standard residues stand in square brackets, D forms with d. Residues, ends and D or L forms follow the SMILES beside them. Groups on a side chain read outwards from the residue. *: point of attachment. Trp(1-CH2COOH) = N[C@@H](Cc1cn(CC(=O)O)c2ccccc12)C(=O)O; X18 = O=[N+]([O-])c1ccc(NC(=S)*)c(Cl)c1; X63 = COc1cc([N+](=O)[O-])ccc1NC(=S)*; X67 = S=C(Nc1c(Cl)c(Cl)cc(Cl)c1Cl)*; Hyp = O=C(O)[C@@H]1C[C@@H](O)CN1; X56 = COc1cc([N+](=O)[O-])ccc1N*; X78 = S=C(Nc1c(Cl)cc(Cl)cc1Cl)*; X30 = FC(F)(F)c1ccc(N*)c(Cl)c1; NMeNle = CCCC[C@H](NC)C(=O)O; X6 = CCCCCCCOc1ccc(N*)cc1; 3Abz = Nc1cccc(C(=O)O)c1; NMeA = CN[C@@H](C)C(=O)O; Dab = NCC[C@H](N)C(=O)O; Dap = NC[C@H](N)C(=O)O; X37 = Fc1cc(F)cc(N*)c1; X15 = Cc1ccc(Cl)cc1N*; X51 = Cc1cccc(Cl)c1N*; CO = O=C([*:1])[*:2]

The term pIC50 denotes the negative decadic logarithm of the IC50, by convention in mol/L.

T1 sequence (Q9NZQ7 18-239): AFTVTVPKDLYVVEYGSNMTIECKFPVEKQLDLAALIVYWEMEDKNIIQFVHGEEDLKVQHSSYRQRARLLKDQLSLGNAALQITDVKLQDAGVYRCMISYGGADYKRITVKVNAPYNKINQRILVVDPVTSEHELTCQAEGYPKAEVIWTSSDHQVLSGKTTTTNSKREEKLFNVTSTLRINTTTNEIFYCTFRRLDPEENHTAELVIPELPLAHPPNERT

Turning to `CCCCCCCOc1ccc(NC(=O)NC[C@@H]2NC(=O)[C@@H]3CCCN3C(=O)[C@H](CC(N)=O)NC(=O)[C@H](C)N(C)C(=O)[C@H](Cc3ccc(O)cc3)NC(=O)CSC[C@@H](C(=O)NCC(N)=O)NC(=O)[C@H](CC(C)C)NC(=O)[C@H](CCCC)N(C)C(=O)[C@H](CCCC)N(C)C(=O)[C@H](Cc3cn(CC(=O)O)c4ccccc34)NC(=O)[C@H](CCN)NC(=O)[C@H](Cc3c[nH]c4ccccc34)NC(=O)[C@@H]3C[C@@H](O)CN3C(=O)[C@H](CC(C)C)NC2=O)cc1` [Example 1099] ({CH2CO}-Y[NMeA]NP[Dap]([CO-X6])L[Hyp]W[Dab][Trp(1-CH2COOH)][NMeNle][NMeNle]LCG-NH2; thioether N-14), the negative logarithm of the IC50 (pIC50) under setting [1] was 8.59.
On the same count and under the same terms, in the case of `CCCC[C@H]1C(=O)N(C)[C@@H](CCCC)C(=O)N[C@@H](CC(C)C)C(=O)N[C@H](C(=O)NCC(N)=O)CSCC(=O)N[C@@H](Cc2ccc(O)cc2)C(=O)N(C)[C@@H](C)C(=O)N[C@@H](CC(N)=O)C(=O)N2CCC[C@H]2C(=O)N[C@@H](CNC(=O)Nc2cccc(C(=O)OCC)c2)C(=O)N[C@@H](CC(C)C)C(=O)N2C[C@H](O)C[C@H]2C(=O)N[C@@H](Cc2c[nH]c3ccccc23)C(=O)N[C@@H](CCNC(=O)Nc2cccc(C(=O)OCC)c2)C(=O)N[C@@H](Cc2cn(CC(=O)O)c3ccccc23)C(=O)N1C` [Example 1100] ({CH2CO}-Y[NMeA]NP[Dap]([CO-3Abz-OEt])L[Hyp]W[Dab]([CO-3Abz-OEt])[Trp(1-CH2COOH)][NMeNle][NMeNle]LCG-NH2; thioether N-14) it was 7.74.
Same read-out and setting: in the case of `CCCC[C@H]1C(=O)N(C)[C@@H](CCCC)C(=O)N[C@@H](CC(C)C)C(=O)N[C@H](C(=O)NCC(N)=O)CSCC(=O)N[C@@H](Cc2ccc(O)cc2)C(=O)N(C)[C@@H](C)C(=O)N[C@@H](CC(N)=O)C(=O)N2CCC[C@H]2C(=O)N[C@@H](CN)C(=O)N[C@@H](CC(C)C)C(=O)N2C[C@H](O)C[C@H]2C(=O)N[C@@H](Cc2c[nH]c3ccccc23)C(=O)N[C@@H](CCNC(=O)Nc2cc(F)cc(F)c2)C(=O)N[C@@H](Cc2cn(CC(=O)O)c3ccccc23)C(=O)N1C` [Example 1101] ({CH2CO}-Y[NMeA]NP[Dap]L[Hyp]W[Dab]([CO-X37])[Trp(1-CH2COOH)][NMeNle][NMeNle]LCG-NH2; thioether N-14) it was 8.07.
On to `CCCC[C@H]1C(=O)N(C)[C@@H](CCCC)C(=O)N[C@@H](CC(C)C)C(=O)N[C@H](C(=O)NCC(N)=O)CSCC(=O)N[C@@H](Cc2ccc(O)cc2)C(=O)N(C)[C@@H](C)C(=O)N[C@@H](CC(N)=O)C(=O)N2CCC[C@H]2C(=O)N[C@@H](CNC(=S)Nc2ccc([N+](=O)[O-])cc2Cl)C(=O)N[C@@H](CC(C)C)C(=O)N2C[C@H](O)C[C@H]2C(=O)N[C@@H](Cc2c[nH]c3ccccc23)C(=O)N[C@@H](CCNC(=S)Nc2ccc([N+](=O)[O-])cc2Cl)C(=O)N[C@@H](Cc2cn(CC(=O)O)c3ccccc23)C(=O)N1C` [Example 1103] ({CH2CO}-Y[NMeA]NP[Dap](X18)L[Hyp]W[Dab](X18)[Trp(1-CH2COOH)][NMeNle][NMeNle]LCG-NH2; thioether N-14), for which the negative-log IC50 (pIC50) was 8.19.
Still for that read-out and setting: in the case of `CCCC[C@H]1C(=O)N(C)[C@@H](CCCC)C(=O)N[C@@H](CC(C)C)C(=O)N[C@H](C(=O)NCC(N)=O)CSCC(=O)N[C@@H](Cc2ccc(O)cc2)C(=O)N(C)[C@@H](C)C(=O)N[C@@H](CC(N)=O)C(=O)N2CCC[C@H]2C(=O)N[C@@H](CNC(=S)Nc2ccc([N+](=O)[O-])cc2OC)C(=O)N[C@@H](CC(C)C)C(=O)N2C[C@H](O)C[C@H]2C(=O)N[C@@H](Cc2c[nH]c3ccccc23)C(=O)N[C@@H](CCNC(=S)Nc2ccc([N+](=O)[O-])cc2OC)C(=O)N[C@@H](Cc2cn(CC(=O)O)c3ccccc23)C(=O)N1C` [Example 1104] ({CH2CO}-Y[NMeA]NP[Dap](X63)L[Hyp]W[Dab](X63)[Trp(1-CH2COOH)][NMeNle][NMeNle]LCG-NH2; thioether N-14) it was 7.92.
For the compound `CCCC[C@H]1C(=O)N(C)[C@@H](CCCC)C(=O)N[C@@H](CC(C)C)C(=O)N[C@H](C(=O)NCC(N)=O)CSCC(=O)N[C@@H](Cc2ccc(O)cc2)C(=O)N(C)[C@@H](C)C(=O)N[C@@H](CC(N)=O)C(=O)N2CCC[C@H]2C(=O)N[C@@H](CNC(=O)Nc2ccc(C(F)(F)F)cc2Cl)C(=O)N[C@@H](CC(C)C)C(=O)N2C[C@H](O)C[C@H]2C(=O)N[C@@H](Cc2c[nH]c3ccccc23)C(=O)N[C@@H](CCN)C(=O)N[C@@H](Cc2cn(CC(=O)O)c3ccccc23)C(=O)N1C` [Example 1105] ({CH2CO}-Y[NMeA]NP[Dap]([CO-X30])L[Hyp]W[Dab][Trp(1-CH2COOH)][NMeNle][NMeNle]LCG-NH2; thioether N-14), the negative logarithm of the IC50 (pIC50) under setting [1] is 7.59.
The same measure, in the same setting: as for `CCCC[C@H]1C(=O)N(C)[C@@H](CCCC)C(=O)N[C@@H](CC(C)C)C(=O)N[C@H](C(=O)NCC(N)=O)CSCC(=O)N[C@@H](Cc2ccc(O)cc2)C(=O)N(C)[C@@H](C)C(=O)N[C@@H](CC(N)=O)C(=O)N2CCC[C@H]2C(=O)N[C@@H](CNC(=O)Nc2cc(Cl)ccc2C)C(=O)N[C@@H](CC(C)C)C(=O)N2C[C@H](O)C[C@H]2C(=O)N[C@@H](Cc2c[nH]c3ccccc23)C(=O)N[C@@H](CCN)C(=O)N[C@@H](Cc2cn(CC(=O)O)c3ccccc23)C(=O)N1C` [Example 1106] ({CH2CO}-Y[NMeA]NP[Dap]([CO-X15])L[Hyp]W[Dab][Trp(1-CH2COOH)][NMeNle][NMeNle]LCG-NH2; thioether N-14), the figure is 8.00; as for `CCCC[C@H]1C(=O)N(C)[C@@H](CCCC)C(=O)N[C@@H](CC(C)C)C(=O)N[C@H](C(=O)NCC(N)=O)CSCC(=O)N[C@@H](Cc2ccc(O)cc2)C(=O)N(C)[C@@H](C)C(=O)N[C@@H](CC(N)=O)C(=O)N2CCC[C@H]2C(=O)N[C@@H](CNC(=O)Nc2c(C)cccc2Cl)C(=O)N[C@@H](CC(C)C)C(=O)N2C[C@H](O)C[C@H]2C(=O)N[C@@H](Cc2c[nH]c3ccccc23)C(=O)N[C@@H](CCNC(=O)Nc2c(C)cccc2Cl)C(=O)N[C@@H](Cc2cn(CC(=O)O)c3ccccc23)C(=O)N1C` [Example 1107] ({CH2CO}-Y[NMeA]NP[Dap]([CO-X51])L[Hyp]W[Dab]([CO-X51])[Trp(1-CH2COOH)][NMeNle][NMeNle]LCG-NH2; thioether N-14), 9.30; as for `CCCC[C@H]1C(=O)N(C)[C@@H](CCCC)C(=O)N[C@@H](CC(C)C)C(=O)N[C@H](C(=O)NCC(N)=O)CSCC(=O)N[C@@H](Cc2ccc(O)cc2)C(=O)N(C)[C@@H](C)C(=O)N[C@@H](CC(N)=O)C(=O)N2CCC[C@H]2C(=O)N[C@@H](CNC(=O)Nc2ccc([N+](=O)[O-])cc2OC)C(=O)N[C@@H](CC(C)C)C(=O)N2C[C@H](O)C[C@H]2C(=O)N[C@@H](Cc2c[nH]c3ccccc23)C(=O)N[C@@H](CCN)C(=O)N[C@@H](Cc2cn(CC(=O)O)c3ccccc23)C(=O)N1C` [Example 1108] ({CH2CO}-Y[NMeA]NP[Dap]([CO-X56])L[Hyp]W[Dab][Trp(1-CH2COOH)][NMeNle][NMeNle]LCG-NH2; thioether N-14), 8.62.
As to `CCCC[C@H]1C(=O)N(C)[C@@H](CCCC)C(=O)N[C@@H](CC(C)C)C(=O)N[C@H](C(=O)NCC(N)=O)CSCC(=O)N[C@@H](Cc2ccc(O)cc2)C(=O)N(C)[C@@H](C)C(=O)N[C@@H](CC(N)=O)C(=O)N2CCC[C@H]2C(=O)N[C@@H](CNC(=S)Nc2c(Cl)cc(Cl)cc2Cl)C(=O)N[C@@H](CC(C)C)C(=O)N2C[C@H](O)C[C@H]2C(=O)N[C@@H](Cc2c[nH]c3ccccc23)C(=O)N[C@@H](CCN)C(=O)N[C@@H](Cc2cn(CC(=O)O)c3ccccc23)C(=O)N1C` [Example 1109] ({CH2CO}-Y[NMeA]NP[Dap](X78)L[Hyp]W[Dab][Trp(1-CH2COOH)][NMeNle][NMeNle]LCG-NH2; thioether N-14), the pIC50 under setting [1] was 8.82.
On the same count and under the same terms, as for `CCCC[C@H]1C(=O)N(C)[C@@H](CCCC)C(=O)N[C@@H](CC(C)C)C(=O)N[C@H](C(=O)NCC(N)=O)CSCC(=O)N[C@@H](Cc2ccc(O)cc2)C(=O)N(C)[C@@H](C)C(=O)N[C@@H](CC(N)=O)C(=O)N2CCC[C@H]2C(=O)N[C@@H](CNC(=S)Nc2c(Cl)c(Cl)cc(Cl)c2Cl)C(=O)N[C@@H](CC(C)C)C(=O)N2C[C@H](O)C[C@H]2C(=O)N[C@@H](Cc2c[nH]c3ccccc23)C(=O)N[C@@H](CCN)C(=O)N[C@@H](Cc2cn(CC(=O)O)c3ccccc23)C(=O)N1C` [Example 1110] ({CH2CO}-Y[NMeA]NP[Dap](X67)L[Hyp]W[Dab][Trp(1-CH2COOH)][NMeNle][NMeNle]LCG-NH2; thioether N-14), the figure is 8.70; as for `CCCC[C@H]1C(=O)N(C)[C@@H](CCCC)C(=O)N[C@@H](CC(C)C)C(=O)N[C@H](C(=O)NCC(N)=O)CSCC(=O)N[C@@H](Cc2ccc(O)cc2)C(=O)N(C)[C@@H](C)C(=O)N[C@@H](CC(N)=O)C(=O)N2CCC[C@H]2C(=O)N[C@@H](CNC(=S)Nc2ccc([N+](=O)[O-])cc2Cl)C(=O)N[C@@H](CC(C)C)C(=O)N2C[C@H](O)C[C@H]2C(=O)N[C@@H](Cc2c[nH]c3ccccc23)C(=O)N[C@@H](CCN)C(=O)N[C@@H](Cc2cn(CC(=O)O)c3ccccc23)C(=O)N1C` [Example 1111] ({CH2CO}-Y[NMeA]NP[Dap](X18)L[Hyp]W[Dab][Trp(1-CH2COOH)][NMeNle][NMeNle]LCG-NH2; thioether N-14), 8.05; as for `CCCC[C@H]1C(=O)N(C)[C@@H](CCCC)C(=O)N[C@@H](CC(C)C)C(=O)N[C@H](C(=O)NCC(N)=O)CSCC(=O)N[C@@H](Cc2ccc(O)cc2)C(=O)N(C)[C@@H](C)C(=O)N[C@@H](CC(N)=O)C(=O)N2CCC[C@H]2C(=O)N[C@@H](CNC(=S)Nc2ccc([N+](=O)[O-])cc2OC)C(=O)N[C@@H](CC(C)C)C(=O)N2C[C@H](O)C[C@H]2C(=O)N[C@@H](Cc2c[nH]c3ccccc23)C(=O)N[C@@H](CCN)C(=O)N[C@@H](Cc2cn(CC(=O)O)c3ccccc23)C(=O)N1C` [Example 1112] ({CH2CO}-Y[NMeA]NP[Dap](X63)L[Hyp]W[Dab][Trp(1-CH2COOH)][NMeNle][NMeNle]LCG-NH2; thioether N-14), 8.92.

For the origin of these results see patent US20220389061A1, “IMMUNOMODULATORS” (priority 2019, published 2022).
